Experimental findings from US11254904B2, “Culture material and use thereof” (MITSUI CHEMICALS, INC., priority 2019, dated 2022) are described below.

Structures can show the parent of a compound that is named as a salt.

Series [1] can be described thus: Evaluation of drug sorption (drug residual rate). In kind it is physicochemical. To be noted: 10 μmol/L drug solution, 0.5 ml per well, 23° C., 2 days; average of three wells. The protocol: Thereafter, the drug solutions were recovered. The concentrations of the recovered drug solutions were measured by a fluorescence analysis method or LC/MS. The drug residual rate, which was the concentration of the measured recovered drug solution with respect to the concentration of the drug solution before added to the vessel, was calculated. The average value of the drug residual rate in three wells was given. For the drugs 1 to 3 for evaluation, concentration analysis was performed by a fluorescence analysis method.

Series [2] in a line: Evaluation of drug sorption (drug residual rate). In kind it is physicochemical. To be noted: 10 μmol/L drug solution, 0.5 ml per well, 23° C., 2 days; average of three wells. The protocol: Thereafter, the drug solutions were recovered. The concentrations of the recovered drug solutions were measured by a fluorescence analysis method or LC/MS. The drug residual rate, which was the concentration of the measured recovered drug solution with respect to the concentration of the drug solution before added to the vessel, was calculated. The average value of the drug residual rate in three wells was given. For the drugs 1 to 3 for evaluation, concentration analysis was performed by a fluorescence analysis method. For the drugs 4 to 8 for evaluation, concentration analysis was performed by LC/MS. <Fluorescence Analysis Conditions> • Evaluation apparatus: FP-6600 (spectrofluorometer, manufactured by JASCO Corporation) • Used cell: Micro cell made of quartz • Bandwidth: excitation side: 5 nm, fluorescence side: 6 nm • Sensitivity (PMT voltage): 400 V • Excitation wavelength: rhodamine B 555 nm <LC/MS Conditions> • Apparatus: Acquity UPLC I-class system/TQ-S micro(water) • Ionization method: electrospray ionization (ESI), positive and negative ion detection A drug sorption test was performed on the 24-well TCPS culture vessel (manufactured by Corning Incorporated, made of polystyrene (PS)) used in Comparative Example 4 and the 24-well PDMS culture vessel (product name: […] (trademark) model number: […]
This is another data set of the same source.

As to `CC(C)NCC(O)c1ccc(O)c(O)c1` (stereo not drawn) [Isoproterenol Hydrochloride, isoproterenol hydrochloride], the “drug residual rate, 4-methyl-1-pentene Polymer Vessel (Example 11)” value (“drug residual rate … (Example 11)” for short) in series [1] came to 63%. In addition, in series [2], the “drug residual rate, PDMS Vessel (Comparative Example 8)” value (“drug residual rate, PDMS Vessel” below) came to 1% and the “drug residual rate, PS Vessel (Comparative Example 7)” value (“drug residual rate, PS Vessel” for short) amounted to 65%.

As for rhodamine 123, the “drug residual rate … (Example 11)” value in series [1] is reported as 99%. In addition, in series [2], the “drug residual rate, PDMS Vessel” value stood at 58% and the “drug residual rate, PS Vessel” value was found to be 79%.

Regarding `CCN(CC)c1ccc2c(-c3ccccc3C(=O)O)c3ccc(=[N+](CC)CC)cc-3oc2c1.[Cl-]` [Rhodamine B, rhodamine B], in series [1], the “drug residual rate … (Example 11)” value is 98%. Further, in series [2], the “drug residual rate, PDMS Vessel” value turned out to be 2% and the “drug residual rate, PS Vessel” value was determined as 90%.

For `Cc1oncc1C(=O)Nc1ccc(C(F)(F)F)cc1` [Leflunomide, leflunomide], the “drug residual rate … (Example 11)” value in series [1] is recorded as 68%. Besides, in series [2], the “drug residual rate, PDMS Vessel” value stood at 2% and the “drug residual rate, PS Vessel” value came to 70%.

Take `Clc1ccccc1CN1CCc2sccc2C1` [Ticlopidine Hydrochloride, ticlopidine hydrochloride]: the “drug residual rate … (Example 11)” value in series [1] is reported as 64%. Also, in series [2], the “drug residual rate, PDMS Vessel” value was found to be 1% and the “drug residual rate, PS Vessel” value worked out at 67%.
